Structures can show the parent of a compound that is named as a salt. Where two headings read alike, the source gives them in different places.
Columns and labels:
[1] = tested on: amyloid peptide 1-40 release; assay: Test 4: Inhibition of Cellular Release of Amyloid Peptide 1-40; assay type: cell-based; details: Chinese hamster ovary cells transfected with the human gene for amyloid precursor protein, 24 hours, read-out: Amyloid-β1-40 release IC50
Protocol: Chinese hamster ovary cells are transfected with the human gene for amyloid precursor protein. The cells are plated at a density of 8000 cells/well into 96-well microtiter plates and cultivated for 24 hours in DMEM cell culture medium containing 10% FCS. The test compound is added to the cells at various concentrations, and the cells are cultivated for 24 hours in the presence of the test compound. […] The potency of the compound is calculated from the percentage of inhibition of amyloid peptide release as a function of the test compound concentration.

human BACE-2 = human BACE-2 (Homo sapiens (Human), UniProt Q9Y5Z0); assay: Test 2: Inhibition of Human BACE-2; assay type: biochemical; details: recombinant BACE-2, pH 4.5, fluorescence-quenched substrate
human BACE-2, sequence (Q9Y5Z0 63-473): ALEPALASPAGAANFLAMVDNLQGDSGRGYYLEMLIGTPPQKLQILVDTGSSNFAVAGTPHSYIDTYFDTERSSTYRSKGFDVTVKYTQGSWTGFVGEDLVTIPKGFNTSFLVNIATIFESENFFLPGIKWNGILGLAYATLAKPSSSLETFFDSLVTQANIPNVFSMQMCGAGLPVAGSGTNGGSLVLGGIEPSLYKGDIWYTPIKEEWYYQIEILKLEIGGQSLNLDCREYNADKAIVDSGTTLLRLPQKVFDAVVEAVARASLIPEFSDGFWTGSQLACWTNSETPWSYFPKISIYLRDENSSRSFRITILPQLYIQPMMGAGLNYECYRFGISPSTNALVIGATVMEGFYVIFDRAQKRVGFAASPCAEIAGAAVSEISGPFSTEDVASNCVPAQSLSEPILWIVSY
Protocol: Test 2: Inhibition of Human BACE-2
(§1) Recombinant BACE-2 (extracellular domain, expressed in baculovirus and purified using standard methods) at 0.1 to 1 nM concentrations is incubated with the test compound at various concentrations for 1 hour at room temperature in 100 mM acetate buffer, pH 4.5, containing 0.1% CHAPS. Activity was measured using a final concentration of 3 μM of the fluorescence-quenched substrate Q-C(HSO3)-Ile-Asp-Leu-Ala-Val-Leu-Asp-HN—CH2—CH2-Mca, where Q=2-nitro-5-amino benzoic acid and Mca=7-methoxy-4-coumarinyl acetic acid. […] Fluorescence increase was followed for 15 min, in 1 minute's intervals. The fluorescence/time slopes were calculated from duplicate wells and from wells without inhibitor and the IC50 values were calculated using a logistic 4-parameter model.

human BACE-1 = human BACE-1 (Homo sapiens (Human), UniProt P56817); assay: Test 1: Inhibition of Human BACE-1; assay type: biochemical; details: recombinant BACE-1, pH 4.5, fluorescence-quenched substrate
human BACE-1, sequence (P56817 46-457): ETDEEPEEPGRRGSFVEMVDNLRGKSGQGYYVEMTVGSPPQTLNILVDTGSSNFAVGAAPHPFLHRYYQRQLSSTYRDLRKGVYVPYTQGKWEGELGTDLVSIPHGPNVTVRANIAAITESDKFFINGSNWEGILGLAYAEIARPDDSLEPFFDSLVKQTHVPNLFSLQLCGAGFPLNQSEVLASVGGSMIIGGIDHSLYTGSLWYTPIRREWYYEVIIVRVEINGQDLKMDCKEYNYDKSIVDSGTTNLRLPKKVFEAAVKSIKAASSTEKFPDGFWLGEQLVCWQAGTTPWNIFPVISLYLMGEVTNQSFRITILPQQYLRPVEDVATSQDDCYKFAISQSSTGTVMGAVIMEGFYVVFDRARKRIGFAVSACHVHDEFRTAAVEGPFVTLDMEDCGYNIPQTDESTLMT
Protocol: Test 1: Inhibition of Human BACE-1
as §1, with “BACE-1” for “BACE-2”

| SMILES | IC50 [1] [µM] | IC50 (human BACE-2) [µM] | IC50 (human BACE-1) [µM] | IC50 ([1]; Cricetulus griseus) [µM] |
| --- | --- | --- | --- | --- |
| NC1=N[C@@](c2cc(Nc3nccn4ccnc34)ccc2F)(C(F)F)COC1 [Example 13, [3-((R)—S-Amino-3-difluoromethyl-3,6-dihydro-2H-[1,4]oxazin-3-yl)-4-fluoro-phenyl]-imidazo[1,2-a]pyrazin-8-yl-amine] | 0.26 | 0.41 | 1.4 | – |
| NC1=N[C@@](c2cc(Nc3nccn4c(Br)cnc34)ccc2F)(C(F)F)COC1 [Example 14, [3-((R)-5-Amino-3-difluoromethyl-3,6-dihydro-2H-[1,4]oxazin-3-yl)-4-fluoro-phenyl]-(3-bromo-imidazo[1,2-a]pyrazin-8-yl)-amine] | – | 1.4 | 0.57 | 0.22 |
| COc1cccnc1Nc1ccc(F)c([C@]2(C(F)F)COCC(N)=N2)c1 [Example 15, (R)-5-Difluoromethyl-5-[2-fluoro-5-(3-methoxy-pyridin-2-ylamino)-phenyl]-5,6-dihydro-2H-[1,4]oxazin-3-ylamine] | – | 0.089 | 0.3 | 0.056 |
| NC1=N[C@@](c2cc(Nc3ncccn3)ccc2F)(C(F)F)COC1 [Example 16, (R)-5-Difluoromethyl-5-[2-fluoro-5-(pyrimidin-2-ylamino)-phenyl]-5,6-dihydro-2H-[1,4]oxazin-3-ylamine] | – | > 10 | 8.6 | 2.3 |
| COc1ccnc(Nc2ccc(F)c([C@]3(C(F)F)COCC(N)=N3)c2)n1 [Example 17, (R)-5-Difluoromethyl-5-[2-fluoro-5-(4-methoxy-pyrimidin-2-ylamino)-phenyl]-5,6-dihydro-2H-[1,4]oxazin-3-ylamine] | – | 0.67 | 1.8 | 0.4 |
| COc1nccnc1Nc1ccc(F)c([C@]2(C(F)F)COCC(N)=N2)c1 [Example 18, (R)-5-Difluoromethyl-5-[2-fluoro-5-(3-methoxy-pyrazin-2-ylamino)-phenyl]-5,6-dihydro-2H-[1,4]oxazin-3-ylamine] | – | 1.3 | 2.4 | 0.67 |
| CCOc1cccnc1Nc1ccc(F)c([C@]2(C(F)F)COCC(N)=N2)c1 [Example 19, (R)-5-Difluoromethyl-5-[5-(3-ethoxy-pyridin-2-ylamino)-2-fluoro-phenyl]-5,6-dihydro-2H-[1,4]oxazin-3-ylamine] | – | 0.16 | 1.3 | 0.31 |
| NC1=N[C@@](c2cc(Nc3ncccc3OCC(F)F)ccc2F)(C(F)F)COC1 [Example 20, (R)-5-{5-[3-(2,2-Difluoro-ethoxy)-pyridin-2-ylamino]-2-fluoro-phenyl}-5-difluoromethyl-5,6-dihydro-2H-[1,4]oxazin-3-ylamine] | – | 0.22 | 1.3 | 0.53 |
| COc1cncnc1Nc1ccc(F)c([C@]2(C(F)F)COCC(N)=N2)c1 [Example 21, (R)-5-Difluoromethyl-5-[2-fluoro-5-(5-methoxy-pyrimidin-4-ylamino)-phenyl]-5,6-dihydro-2H-[1,4]oxazin-3-ylamine] | – | 0.56 | 1.5 | 0.43 |
| NC1=N[C@@](c2cc(Nc3ncccc3OC(F)F)ccc2F)(C(F)F)COC1 [Example 22, (R)-5-[5-(3-Difluoromethoxy-pyridin-2-ylamino)-2-fluoro-phenyl]-5-difluoromethyl-5,6-dihydro-2H-[1,4]oxazin-3-ylamine] | – | 0.34 | 0.97 | 0.24 |
| C[C@@]1(c2cc(Nc3ncnc4cc(Cl)cnc34)ccc2F)CO[C@@](C)(C(F)(F)F)C(N)=N1 [Example 23, [3-((3R,6R)-5-Amino-3,6-dimethyl-6-trifluoromethyl-3,6-dihydro-2H-[1,4]oxazin-3-yl)-4-fluoro-phenyl]-(7-chloro-pyrido[3,2-d]pyrimidin-4-yl)-amine di-hydrochloride] | – | 0.011 | 0.04 | 0.051 |
| C[C@@]1(c2cc(Nc3ncnc4cc(C(F)(F)F)cnc34)ccc2F)CO[C@@](C)(C(F)(F)F)C(N)=N1 [Example 24, [3-((3R,6R)-5-Amino-3,6-dimethyl-6-trifluoromethyl-3,6-dihydro-2H-[1,4]oxazin-3-yl)-4-fluoro-phenyl]-(7-trifluoromethyl-pyrido[3,2-d]pyrimidin-4-yl)-amine] | – | 0.28 | 0.083 | 0.046 |
| COc1cccnc1Nc1ccc(F)c([C@]2(C)CO[C@@](C)(C(F)(F)F)C(N)=N2)c1 [Example 25, (2R,5R)-5-[2-Fluoro-5-(3-methoxy-pyridin-2-ylamino)-phenyl]-2,5-dimethyl-2-trifluoromethyl-5,6-dihydro-2H-[1,4]oxazin-3-ylamine] | – | 0.027 | 0.21 | 0.22 |
| COc1cc([N+](=O)[O-])cnc1Nc1ccc(F)c([C@]2(C(F)F)COCC(N)=N2)c1 [Example 26, (R)-5-Difluoromethyl-5-[2-fluoro-5-(3-methoxy-5-nitro-pyridin-2-ylamino)-phenyl]-5,6-dihydro-2H-[1,4]oxazin-3-ylamine] | – | 1.4 | 2.9 | 0.69 |
| COc1cc(N)cnc1Nc1ccc(F)c([C@]2(C(F)F)COCC(N)=N2)c1 [Example 27, N*2*-[3-((R)-5-Amino-3-difluoromethyl-3,6-dihydro-2H-[1,4]oxazin-3-yl)-4-fluoro-phenyl]-3-methoxy-pyridine-2,5-diamine] | – | 0.66 | 3 | 2 |
| C[C@@]1(c2nc(Nc3ncnc4cc(C(F)(F)F)cnc34)ccc2F)CO[C@@](C)(C(F)(F)F)C(N)=N1 [Example 28, [6-((3R,6R)-5-Amino-3,6-dimethyl-6-trifluoromethyl-3,6-dihydro-2H-[1,4]oxazin-3-yl)-5-fluoro-pyridin-2-yl]-(7-trifluoromethyl-pyrido[3,2-d]pyrimidin-4-yl)-amine] | – | 0.2 | 0.068 | 0.15 |
| C[C@@]1(c2nc(Nc3ncccc3C#N)ccc2F)CO[C@@](C)(C(F)(F)F)C(N)=N1 [Example 30, 2-[6-((3R,6R)-5-Amino-3,6-dimethyl-6-trifluoromethyl-3,6-dihydro-2H-[1,4]oxazin-3-yl)-5-fluoro-pyridin-2-ylamino]-nicotinonitrile] | – | 1.6 | 1.5 | 0.15 |
| COc1cccnc1Nc1ccc(F)c([C@]2(C)CO[C@@](C)(C(F)(F)F)C(N)=N2)n1 [Example 31, (2R,5R)-5-[3-Fluoro-6-(3-methoxy-pyridin-2-ylamino)-pyridin-2-yl]-2,5-dimethyl-2-trifluoromethyl-5,6-dihydro-2H-[1,4]oxazin-3-ylamine] | – | 1.7 | 6.4 | 1 |
| Cn1nc(Nc2cccc([C@]3(C)COCC(N)=N3)c2)c2ccccc21 [Example 32, [3-((R)-5-Amino-3-methyl-3,6-dihydro-2H-[1,4]oxazin-3-yl)-phenyl]-(1-methyl-1H-indazol-3-yl)-amine] | – | > 10 | > 10 | 8.3 |
| COc1cnc(N)nc1Nc1ccc(F)c([C@]2(C(F)F)COCC(N)=N2)c1 [N*4*-[3-((R)-5-amino-3-difluoromethyl-3,6-dihydro-2H-[1,4]oxazin-3-yl)-4-fluoro-phenyl]-5-methoxy-pyrimidine-2,4-diamine] | – | > 10 | > 10 | > 10 |
| C[C@@]1(c2cccc(Nc3n[nH]c4ccccc34)c2)COCC(N)=N1 [[3-((R)-5-amino-3-methyl-3,6-dihydro-2H-[1,4]oxazin-3-yl)-phenyl]-(1H-indazol-3-yl)-amine] | – | > 10 | > 10 | > 10 |
